Source: ChEMBL document CHEMBL2202991, “The effect of the length and flexibility of the side chain of basic amino acids on the binding of antimicrobial peptides to zwitterionic and anionic membrane model systems” (Bioorg Med Chem, 2012)
The source made the active and inactive calls. The calls are words filed in the database; no cut-off is given here. Non-standard residues stand in square brackets, D forms with d. Residues, ends and D or L forms follow the SMILES beside them. ξ: configuration not given here. Pro(3ξ,4ξ-(CH2)4) = O=C(O)[C@H]1NCC2CCCCC21; Tic = O=C(O)[C@@H]1Cc2ccccc2CN1; ξR = N=C(N)NCCCC(N)C(=O)O; Dab = NCC[C@H](N)C(=O)O; Dap = NC[C@H](N)C(=O)O

How the values were obtained:
Lipid bilayer [1] = experiment: Binding affinity to 4:1 POPC/POPG large unilamellar vesicles assessed as calcein leakage at 20 uM measured up to 90 mins by fluorimetric analysis
Lipid bilayer [2] = experiment: Binding affinity to POPC large unilamellar vesicle at 200 uM by circular dichroism analysis
Lipid bilayer [3] = experiment: Binding affinity to POPC large unilamellar vesicle assessed as lipid:compound molar ratio for complete interaction at 0.2 mM by isothermal titration calorimetric analysis
Lipid bilayer [4] = experiment: Binding affinity to 4:1 POPC/POPG small unilamellar vesicle at 100 uM by circular dichroism analysis
Lipid bilayer [5] = experiment: Binding affinity to POPC large unilamellar vesicle at 200 uM by pseudo titration based circular dichroism analysis
[6] = Binding affinity to zwitterionic dodecylphosphocholine micelle at 100 uM by circular dichroism analysis
Lipid bilayer [7] = experiment: Binding affinity to POPC small unilamellar vesicle at 100 uM by circular dichroism analysis
Lipid bilayer [8] = experiment: Binding affinity to 4:1 POPC/POPG large unilamellar vesicle assessed as lipid:compound molar ratio for complete interaction at 0.2 mM by isothermal titration calorimetric analysis
Lipid bilayer [9] = experiment: Binding affinity to 4:1 POPC/POPG large unilamellar vesicle assessed as lipid:compound molar ratio required for integration into membrane at 200 uM by pseudo titration-based circular dichroism analysis
[10] = Binding affinity to anionic sodium dodecyl sulfate micelle at 100 uM by circular dichroism analysis
Lipid bilayer [11] = experiment: Binding affinity to POPC large unilamellar vesicle at 0.2 mM by isothermal titration calorimetric analysis
Lipid bilayer [12] = experiment: Binding affinity to 4:1 POPC/POPG large unilamellar vesicle at 100 uM by circular dichroism analysis
Lipid bilayer [13] = experiment: Binding affinity to POPC large unilamellar vesicles assessed as calcein leakage at 20 uM measured up to 90 mins by fluorimetric analysis
Lipid bilayer [14] = experiment: Binding affinity to POPC large unilamellar vesicle at 100 uM by pseudo titration based circular dichroism analysis
Lipid bilayer [15] = experiment: Binding affinity to POPC large unilamellar vesicle at 100 uM by circular dichroism analysis
Lipid bilayer [16] = experiment: Binding affinity to POPC large unilamellar vesicles assessed as calcein leakage at 4 to 20 uM measured up to 90 mins by fluorimetric analysis
Lipid bilayer [17] = experiment: Binding affinity to 4:1 POPC/POPG large unilamellar vesicles assessed as calcein leakage at 4 to 20 uM measured up to 90 mins by fluorimetric analysis
Lipid bilayer [18] = experiment: Binding affinity to 4:1 POPC/POPG large unilamellar vesicle assessed as lipid:compound molar ratio required for integration into membrane at 100 uM by pseudo titration-based circular dichroism analysis
Lipid bilayer [19] = experiment: Binding affinity to 4:1 POPC/POPG large unilamellar vesicles assessed as calcein leakage at 4 uM measured up to 90 mins by fluorimetric analysis
Lipid bilayer [20] = experiment: Binding affinity to POPC large unilamellar vesicles assessed as calcein leakage at 4 uM measured up to 90 mins by fluorimetric analysis
Lipid bilayer [21] = experiment: Binding affinity to 4:1 POPC/POPG large unilamellar vesicle at 200 uM by pseudo titration-based circular dichroism analysis

| SMILES | Activity (Lipid bilayer [1]) [%] | Activity (Lipid bilayer [2]) | Activity (Lipid bilayer [3]) [molar ratio] | Activity (Lipid bilayer [4]) | Activity (Lipid bilayer [5]) | Activity [6] | Activity (Lipid bilayer [7]) | Activity (Lipid bilayer [8]) [molar ratio] | Activity (Lipid bilayer [9]) [molar ratio] | Activity [10] | Kb (Lipid bilayer [11]) [M⁻¹] | Activity (Lipid bilayer [12]) | Activity (Lipid bilayer [13]) [%] | Activity (Lipid bilayer [14]) | Activity (Lipid bilayer [15]) | Activity (Lipid bilayer [16]) | Activity (Lipid bilayer [17]) | other results |
| --- | --- | --- | --- | --- | --- | --- | --- | --- | --- | --- | --- | --- | --- | --- | --- | --- | --- | --- |
| CC(=O)NCC(=O)N[C@@H](Cc1ccccc1)C(=O)N1Cc2ccccc2C[C@H]1C(=O)N1CC2CCCCC2[C@H]1C(=O)NCC(=O)N[C@@H](CCCCN)C(=O)N1Cc2ccccc2C[C@H]1C(=O)N1CC2CCCCC2[C@H]1C(=O)NCC(=O)N[C@@H](Cc1ccccc1)C(=O)N1Cc2ccccc2C[C@H]1C(=O)N1CC2CCCCC2[C@H]1C(=O)NCC(=O)N[C@@H](CCCCN)C(=O)N1Cc2ccccc2C[C@H]1C(=O)N[C@@H](CCCCN)C(=O)N[C@@H](CCCCN)C(=O)N[C@@H](CCCCN)C(=O)N[C@@H](CCCCN)C(N)=O (some centres not stated) (Ac-GF[Tic][Pro(3ξ,4ξ-(CH2)4)]GK[Tic][Pro(3ξ,4ξ-(CH2)4)]GF[Tic][Pro(3ξ,4ξ-(CH2)4)]GK[Tic]KKKK-NH2) | 40 | Active | 120 | Active | Active | Active | Active | 30 | 39 | Active | 211 | Active | 25 |  |  |  |  |  |
| CC(=O)NCC(=O)N[C@@H](Cc1ccccc1)C(=O)N1Cc2ccccc2C[C@H]1C(=O)N1CC2CCCCC2[C@H]1C(=O)NCC(=O)N[C@@H](CCN)C(=O)N1Cc2ccccc2C[C@H]1C(=O)N1CC2CCCCC2[C@H]1C(=O)NCC(=O)N[C@@H](Cc1ccccc1)C(=O)N1Cc2ccccc2C[C@H]1C(=O)N1CC2CCCCC2[C@H]1C(=O)NCC(=O)N[C@@H](CCN)C(=O)N1Cc2ccccc2C[C@H]1C(=O)N[C@@H](CCN)C(=O)N[C@@H](CCN)C(=O)N[C@@H](CCN)C(=O)N[C@@H](CCN)C(N)=O (some centres not stated) (Ac-GF[Tic][Pro(3ξ,4ξ-(CH2)4)]G[Dab][Tic][Pro(3ξ,4ξ-(CH2)4)]GF[Tic][Pro(3ξ,4ξ-(CH2)4)]G[Dab][Tic][Dab][Dab][Dab][Dab]-NH2) |  |  | 130 | Active |  | Active | Active | 20 | 22 | Active | 240 | Active |  | Active | Active | Active | Active |  |
| CC(=O)NCC(=O)N[C@@H](Cc1ccccc1)C(=O)N1Cc2ccccc2C[C@H]1C(=O)N1CC2CCCCC2[C@@H]1C(=O)NCC(=O)N[C@H](CCCN)C(=O)N1Cc2ccccc2C[C@@H]1C(=O)N1CC2CCCCC2[C@H]1C(=O)NCC(=O)NC(Cc1ccccc1)C(=O)N1Cc2ccccc2C[C@@H]1C(=O)N1CC2CCCCC2[C@@H]1C(=O)NCC(=O)N[C@H](CCCN)C(=O)N1Cc2ccccc2C[C@@H]1C(=O)N[C@H](CCCN)C(=O)N[C@H](CCCN)C(=O)N[C@H](CCCN)C(=O)N[C@H](CCCN)C(N)=O (single isomer, unassigned) |  |  | 130 | Active |  | Active | Active | 28 | 36 | Active | 191 | Active |  | Active | Active | Active | Active |  |

More lines, main results first:

| Activity (Lipid bilayer [1]) [%] | Activity (Lipid bilayer [2]) | Activity (Lipid bilayer [3]) [molar ratio] | Activity (Lipid bilayer [4]) | Activity (Lipid bilayer [5]) | Activity [6] | Activity (Lipid bilayer [7]) | Activity (Lipid bilayer [8]) [molar ratio] | Activity (Lipid bilayer [9]) [molar ratio] | Activity [10] | Kb (Lipid bilayer [11]) [M⁻¹] | Activity (Lipid bilayer [12]) | Activity (Lipid bilayer [13]) [%] | Activity (Lipid bilayer [14]) | Activity (Lipid bilayer [15]) | Activity (Lipid bilayer [16]) | Activity (Lipid bilayer [17]) | SMILES | other results |
| --- | --- | --- | --- | --- | --- | --- | --- | --- | --- | --- | --- | --- | --- | --- | --- | --- | --- | --- |
| 90 |  | 150 | Active |  | Active | Active | 30 |  | Active | 479 | Active | 60 | Active | Active |  |  | CC(=O)NCC(=O)N[C@@H](Cc1ccccc1)C(=O)N1Cc2ccccc2C[C@H]1C(=O)N1CC2CCCCC2[C@H]1C(=O)NCC(=O)NC(CCCNC(=N)N)C(=O)N1Cc2ccccc2C[C@H]1C(=O)N1CC2CCCCC2[C@H]1C(=O)NCC(=O)N[C@@H](Cc1ccccc1)C(=O)N1Cc2ccccc2C[C@H]1C(=O)N1CC2CCCCC2[C@H]1C(=O)NCC(=O)N[C@@H](CCCNC(=N)N)C(=O)N1Cc2ccccc2C[C@H]1C(=O)N[C@@H](CCCNC(=N)N)C(=O)N[C@@H](CCCNC(=N)N)C(=O)N[C@@H](CCCNC(=N)N)C(=O)N[C@@H](CCCNC(=N)N)C(N)=O (some centres not stated) (Ac-GF[Tic][Pro(3ξ,4ξ-(CH2)4)]G[ξR][Tic][Pro(3ξ,4ξ-(CH2)4)]GF[Tic][Pro(3ξ,4ξ-(CH2)4)]GR[Tic]RRRR-NH2) | Activity (Lipid bilayer [18]): 52 molar ratio; Activity (Lipid bilayer [19]): 50%; Activity (Lipid bilayer [20]): 60% |
| 100 | Active | 55 | Active | Active | Active | Active | 55 |  | Active | 570 | Active | 100 |  |  |  |  | CC(=O)NCC(=O)N[C@@H](Cc1ccccc1)C(=O)N1Cc2ccccc2C[C@H]1C(=O)N1CC2CCCCC2[C@H]1C(=O)NCC(=O)N[C@@H](CN)C(=O)N1Cc2ccccc2C[C@H]1C(=O)N1CC2CCCCC2[C@H]1C(=O)NCC(=O)N[C@@H](Cc1ccccc1)C(=O)N1Cc2ccccc2C[C@H]1C(=O)N1CC2CCCCC2[C@H]1C(=O)NCC(=O)N[C@@H](CN)C(=O)N1Cc2ccccc2C[C@H]1C(=O)N[C@@H](CN)C(=O)N[C@@H](CN)C(=O)N[C@@H](CN)C(=O)N[C@@H](CN)C(N)=O (some centres not stated) (Ac-GF[Tic][Pro(3ξ,4ξ-(CH2)4)]G[Dap][Tic][Pro(3ξ,4ξ-(CH2)4)]GF[Tic][Pro(3ξ,4ξ-(CH2)4)]G[Dap][Tic][Dap][Dap][Dap][Dap]-NH2) | Activity (Lipid bilayer [21]): Active |
